1 compound from the NIST ThermoML archive (doi:10.1016/j.fluid.2012.01.022) can be followed below.

For series [1] the following is noted: Crystal; DTA.
The nature of series [2]: Molar enthalpy of transition or fusion. The settings on record: Crystal; DSC.

± gives the expanded uncertainty stated by the source.

As to `NNC(=O)c1ccncc1` [isonicotinic acid hydrazide], the Normal melting temperature in series [1] came out at 172.69 ± 1.1 °C. In addition, the “Molar enthalpy of transition or fusion” value in series [2] came to 6.67 ± 0.191 kcal/mol.
